Laboratory results reported in US6914045B2, “Glycopeptide antibiotics” (Wyeth Holdings Corporation, priority 2001, dated 2005).
≈ marks a conversion by molar mass, not a printed value.

What was measured:
Experiment in all cases: in vitro antibacterial evaluation, MIC by broth dilution
Type in all cases: cell-based
Streptococcus sp. = details: broth dilution, 18 hours at 35° C.
How it was run: (§1)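 MIC, the lowest antibiotic concentration preventing growth, was read across 64-0.06 μg/mL with 5×10^5 CFU/mL inoculum. Method followed NCCLS M7-A2 broth dilution using Mueller-Hinton II; Gram-positive strains covered recent methicillin-, penicillin- and/or vancomycin-resistant clinical isolates.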

Enterococcus sp. = details: broth dilution, 18 hours at 35° C.
How it was run: as §1

Staphylococcus sp. = details: broth dilution, 18 hours at 35° C.
How it was run: as §1

Escherichia coli = details: 18 hours at 35° C.
How it was run: as §1

MIC Streptococcus agalactiae (GC 4564) (Streptococcus sp.; Streptococcus agalactiae (GC 4564)): <0.5 µg/mL
MIC Streptococcus pneumoniae (ATCC 6301) (Streptococcus sp.; Streptococcus pneumoniae (ATCC 6301)): <0.5 µg/mL
MIC Streptococcus pneumoniae (GC 1894) (Streptococcus sp.; Streptococcus pneumoniae (GC 1894)): <0.5 µg/mL
MIC Streptococcus pneumoniae (GC 4565) (Streptococcus sp.; Streptococcus pneumoniae (GC 4565)): 4 µg/mL (≈ 2.88 µM)
MIC Streptococcus pyogenes (GC 4563) (Streptococcus sp.; Streptococcus pyogenes (GC 4563)): <0.5 µg/mL
MIC Streptococcus pneumoniae (ATCC 6301) (Streptococcus sp.; strain ATCC 6301): <0.5 µg/mL
MIC Streptococcus pneumoniae (GC 1894) (Streptococcus sp.; strain GC 1894): <0.5 µg/mL
MIC Streptococcus pyogenes (GC 4563) (Streptococcus sp.; strain GC 4563): <0.5 µg/mL
MIC Streptococcus agalactiae (GC 4564) (Streptococcus sp.; strain GC 4564): <0.5 µg/mL
MIC Streptococcus pneumoniae (GC 4565) (Streptococcus sp.; strain GC 4565): 4 µg/mL (≈ 2.88 µM)
MIC Enterococcus avium (GC 4558) (Enterococcus sp.; Enterococcus avium (GC 4558)): 8 µg/mL (≈ 5.76 µM)
MIC Enterococcus faecalis (ATCC 29212) (Enterococcus sp.; Enterococcus faecalis (ATCC 29212)): 8 µg/mL (≈ 5.76 µM)
MIC Enterococcus faecalis (GC 2242) (Enterococcus sp.; Enterococcus faecalis (GC 2242)): 4 µg/mL (≈ 2.88 µM)
MIC Enterococcus faecalis (GC 2691) (Enterococcus sp.; Enterococcus faecalis (GC 2691)): 8 µg/mL (≈ 5.76 µM)
MIC Enterococcus faecalis (GC 3059) (Enterococcus sp.; Enterococcus faecalis (GC 3059)): 8 µg/mL (≈ 5.76 µM)
MIC Enterococcus faecalis (GC 4552) (Enterococcus sp.; Enterococcus faecalis (GC 4552)): 8 µg/mL (≈ 5.76 µM)
MIC Enterococcus faecalis (GC 4553) (Enterococcus sp.; Enterococcus faecalis (GC 4553)): 8 µg/mL (≈ 5.76 µM)
MIC Enterococcus faecalis (GC 4554) (Enterococcus sp.; Enterococcus faecalis (GC 4554)): 8 µg/mL (≈ 5.76 µM)
MIC Enterococcus faecalis (GC 6189) (Enterococcus sp.; Enterococcus faecalis (GC 6189)): 4 µg/mL (≈ 2.88 µM)
MIC Enterococcus faecium (GC 2243) (Enterococcus sp.; Enterococcus faecium (GC 2243)): 8 µg/mL (≈ 5.76 µM)
MIC Enterococcus faecium (GC 4556) (Enterococcus sp.; Enterococcus faecium (GC 4556)): 8 µg/mL (≈ 5.76 µM)
MIC Enterococcus faecium (GC 4557) (Enterococcus sp.; Enterococcus faecium (GC 4557)): 2 µg/mL (≈ 1.44 µM)
MIC Enterococcus faecalis (ATCC 29212) (Enterococcus sp.; strain ATCC 29212): 8 µg/mL (≈ 5.76 µM)
MIC Enterococcus faecalis (GC 2242) (Enterococcus sp.; strain GC 2242): 4 µg/mL (≈ 2.88 µM)
MIC Enterococcus faecium (GC 2243) (Enterococcus sp.; strain GC 2243): 8 µg/mL (≈ 5.76 µM)
MIC Enterococcus faecalis (GC 2691) (Enterococcus sp.; strain GC 2691): 8 µg/mL (≈ 5.76 µM)
MIC Enterococcus faecalis (GC 3059) (Enterococcus sp.; strain GC 3059): 8 µg/mL (≈ 5.76 µM)
MIC Enterococcus faecalis (GC 4552) (Enterococcus sp.; strain GC 4552): 8 µg/mL (≈ 5.76 µM)
MIC Enterococcus faecalis (GC 4553) (Enterococcus sp.; strain GC 4553): 8 µg/mL (≈ 5.76 µM)
MIC Enterococcus faecalis (GC 4554) (Enterococcus sp.; strain GC 4554): 8 µg/mL (≈ 5.76 µM)
MIC Enterococcus faecium (GC 4556) (Enterococcus sp.; strain GC 4556): 8 µg/mL (≈ 5.76 µM)
MIC Enterococcus faecium (GC 4557) (Enterococcus sp.; strain GC 4557): 2 µg/mL (≈ 1.44 µM)
MIC Enterococcus avium (GC 4558) (Enterococcus sp.; strain GC 4558): 8 µg/mL (≈ 5.76 µM)
MIC Enterococcus faecalis (GC 6189) (Enterococcus sp.; strain GC 6189): 4 µg/mL (≈ 2.88 µM)
MIC Staphylococcus aureus (ATCC 29213) (Staphylococcus sp.): 1 µg/mL (≈ 0.72 µM)
MIC Staphylococcus aureus (GC 1131) (Staphylococcus sp.): 2 µg/mL (≈ 1.44 µM)
MIC Staphylococcus aureus (GC 3051) (Staphylococcus sp.): 1 µg/mL (≈ 0.72 µM)
MIC Staphylococcus aureus (GC 3053) (Staphylococcus sp.): 4 µg/mL (≈ 2.88 µM)
MIC Staphylococcus aureus (GC 4541) (Staphylococcus sp.): 1 µg/mL (≈ 0.72 µM)
MIC Staphylococcus aureus (GC 4542) (Staphylococcus sp.): 2 µg/mL (≈ 1.44 µM)
MIC Staphylococcus aureus (GC 4544) (Staphylococcus sp.): 2 µg/mL (≈ 1.44 µM)
MIC Staphylococcus aureus (GC 4545) (Staphylococcus sp.): 1 µg/mL (≈ 0.72 µM)
MIC Staphylococcus aureus (GC 1131) (Staphylococcus sp.; inoculum 5×10^5 CFU/mL, strain GC 1131): 2 µg/mL (≈ 1.44 µM)
MIC Staphylococcus aureus (ATCC 29213) (Staphylococcus sp.; strain ATCC 29213): 1 µg/mL (≈ 0.72 µM)
MIC Staphylococcus aureus (GC 3051) (Staphylococcus sp.; strain GC 3051): 1 µg/mL (≈ 0.72 µM)
MIC Staphylococcus aureus (GC 3053) (Staphylococcus sp.; strain GC 3053): 4 µg/mL (≈ 2.88 µM)
MIC Staphylococcus aureus (GC 4541) (Staphylococcus sp.; strain GC 4541): 1 µg/mL (≈ 0.72 µM)
MIC Staphylococcus aureus (GC 4542) (Staphylococcus sp.; strain GC 4542): 2 µg/mL (≈ 1.44 µM)
MIC Staphylococcus aureus-SMITH (GC 4543) (Staphylococcus sp.; strain GC 4543): 1 µg/mL (≈ 0.72 µM)
MIC Staphylococcus aureus (GC 4544) (Staphylococcus sp.; strain GC 4544): 2 µg/mL (≈ 1.44 µM)
MIC Staphylococcus aureus (GC 4545) (Staphylococcus sp.; strain GC 4545): 1 µg/mL (≈ 0.72 µM)
MIC Coagulase Negative Staphylococcus (GC 4547) (Staphylococcus sp.; strain GC 4547): 1 µg/mL (≈ 0.72 µM)
MIC Coagulase Negative Staphylococcus (GC 4548) (Staphylococcus sp.; strain GC 4548): <0.5 µg/mL
MIC Coagulase Negative Staphylococcus (GC 4549) (Staphylococcus sp.; strain GC 4549): 1 µg/mL (≈ 0.72 µM)
MIC Coagulase Negative Staphylococcus (GC 4551) (Staphylococcus sp.; strain GC 4551): 1 µg/mL (≈ 0.72 µM)
MIC Coagulase Negative Staphylococcus (GC 6257) (Staphylococcus sp.; strain GC 6257): 1 µg/mL (≈ 0.72 µM)
MIC Staphylococcus aureus-SMITH (GC 4543) (Staphylococcus sp.; strain SMITH GC 4543): 1 µg/mL (≈ 0.72 µM)
MIC Escherichia coli (ATCC 25922) (Escherichia coli; strain ATCC 25922): 64 µg/mL (≈ 46.1 µM)
MIC Escherichia coli (GC 4559) (Escherichia coli; strain GC 4559): 32 µg/mL (≈ 23 µM)
MIC Escherichia coli (GC 4560) (Escherichia coli; strain GC 4560): <0.5 µg/mL
SMILES: CC(c1ccccc1)C1NC(=O)CNC(=O)C(CO)NC(=O)C(C(O)C2CNC(=N)N2C2OC(CO)C(O)C(O)C2O)NC(=O)C(C(O)C2CNC(=N)N2)NC(=O)C(Cc2ccc(OC3OC(CO)C(OC4OC5COC(c6ccsc6)OC5C(O)C4O)C(O)C3O)cc2)NC1=O (stereo not shown) [Example 133]
MIC Staphylococcus haemolyticus (GC 4546) (Staphylococcus sp.; strain GC 4546): 1 µg/mL (≈ 0.72 µM)
